Measurements as given in PubChem BioAssay AID254 (DTP/NCI, 2004).
Where “and” joins values, the source holds several entries; their conditions need not be identical. Equal entries are not always repeated. Inconclusive results and toxic doses are left out.

Tested on: L1210 leukemia iv in BDF1 mice, survival T/C
Test: NCI In Vivo Anticancer Drug Screen. Data for tumor model L1210 Leukemia (intravenous) in B6D2F1 (BDF1) mice
Settings: endpoint: mean survival time, higher = longer survival
Procedure: The antitumor activity of compounds was measured in mice bearing transplantable tumors. Survival or tumor size were measured and the results are expressed as the measurement made in the treated group (T) divided by the measurement made in the vehicle treated control group (C). The tumor model used in this assay is L1210 Leukemia (intravenous) in B6D2F1 (BDF1) mice

[1] = dose: 16.0 mg/kg/injection, schedule: Q01DX001 (ip), vehicle: other
[2] = dose: 24.0 mg/kg/injection, schedule: Q01DX001 (ip), vehicle: other
[3] = dose: 36.0 mg/kg/injection, schedule: Q01DX001 (ip), vehicle: other
[4] = dose: 0.75 mg/kg/injection, schedule: Q01DX005 (iv), vehicle: saline
[5] = dose: 1.5 mg/kg/injection, schedule: Q01DX005 (iv), vehicle: saline
[6] = dose: 3.0 mg/kg/injection, schedule: Q01DX005 (iv), vehicle: saline
[7] = dose: 4.0 mg/kg/injection, schedule: Q01DX005 (iv), vehicle: saline
[8] = dose: 7.0 mg/kg/injection, schedule: Q01DX005 (iv), vehicle: saline

## CC1CCC(NC(=O)N(CCCl)N=O)CC1 (stereo unspecified)
dose: 5.0 mg/kg/injection, schedule: Q04DX004 (ip), vehicle: other
  T/C: 124 % of control
dose: 5.4 mg/kg/injection, schedule: Q01DX001 (oral), vehicle: other
  T/C: 122 % of control
dose: 8.6 mg/kg/injection, schedule: Q04DX004 (ip), vehicle: saline with Tween-80
  T/C: 187 % of control
dose: 10.0 mg/kg/injection, schedule: Q04DX004 (ip), vehicle: other
  T/C: 182 % of control
dose: 10.7 mg/kg/injection, schedule: Q01DX001 (ip), vehicle: saline with Tween-80
  T/C: 152 % of control and 163 % of control
dose: 12.0 mg/kg/injection, schedule: Q01DX001 (ip), vehicle: other
  T/C: 165 % of control
dose: 12.0 mg/kg/injection, schedule: Q01DX001 (oral), vehicle: other
  T/C: 164 % of control and 187 % of control
dose: 13.0 mg/kg/injection, schedule: Q04DX004 (ip), vehicle: saline with Tween-80
  T/C: 849 % of control and 850 % of control
dose: 15.0 mg/kg/injection, schedule: Q01DX001 (ip), vehicle: other
  T/C: 352 % of control and 185 % of control and 332 % of control
dose: 15.0 mg/kg/injection, schedule: Q04DX004 (ip), vehicle: other
  T/C: 734 % of control
[1]
  T/C: 102 % of control
dose: 16.0 mg/kg/injection, schedule: Q01DX001 (ip), vehicle: saline with Tween-80
  T/C: 189 % of control and 248 % of control
dose: 20.0 mg/kg/injection, schedule: Q01DX001 (ip), vehicle: other
  T/C: 532 % of control and 303 % of control and 326 % of control
dose: 20.0 mg/kg/injection, schedule: Q04DX004 (ip), vehicle: other
  T/C: 463 % of control
dose: 20.0 mg/kg/injection, schedule: Q04DX004 (ip), vehicle: saline with Tween-80
  T/C: 983 % of control
[2]
  T/C: 153 % of control
dose: 24.0 mg/kg/injection, schedule: Q01DX001 (ip), vehicle: saline with Tween-80
  T/C: 347 % of control and 453 % of control
dose: 27.0 mg/kg/injection, schedule: Q01DX001 (oral), vehicle: other
  T/C: 590 % of control and 633 % of control and 818 % of control
dose: 30.0 mg/kg/injection, schedule: Q01DX001 (ip), vehicle: other
  T/C: 683 % of control
dose: 30.0 mg/kg/injection, schedule: Q04DX004 (ip), vehicle: other
  T/C: 819 % of control
dose: 35.0 mg/kg/injection, schedule: Q01DX001 (ip), vehicle: other
  T/C: 761 % of control
[3]
  T/C: 153 % of control
dose: 36.0 mg/kg/injection, schedule: Q01DX001 (ip), vehicle: saline with Tween-80
  T/C: 612 % of control
dose: 36.0 mg/kg/injection, schedule: Q01DX001 (oral), vehicle: other
  T/C: 751 % of control and 753 % of control and 868 % of control
dose: 40.0 mg/kg/injection, schedule: Q01DX001 (oral), vehicle: other
  T/C: 633 % of control and 786 % of control and 818 % of control
dose: 45.0 mg/kg/injection, schedule: Q01DX001 (oral), vehicle: other
  T/C: 574 % of control and 600 % of control
dose: 50.0 mg/kg/injection, schedule: Q01DX001 (ip), vehicle: other
  T/C: 542 % of control and 661 % of control
dose: 54.0 mg/kg/injection, schedule: Q01DX001 (ip), vehicle: other
  T/C: 202 % of control
dose: 54.0 mg/kg/injection, schedule: Q01DX001 (ip), vehicle: saline with Tween-80
  T/C: 683 % of control and 875 % of control
dose: 54.0 mg/kg/injection, schedule: Q01DX001 (oral), vehicle: other
  T/C: 810 % of control and 983 % of control and 179 % of control
dose: 55.0 mg/kg/injection, schedule: Q01DX001 (ip), vehicle: other
  T/C: 500 % of control and 295 % of control
dose: 60.0 mg/kg/injection, schedule: Q01DX001 (ip), vehicle: saline with Tween-80
  T/C: 557 % of control
dose: 60.0 mg/kg/injection, schedule: Q01DX001 (oral), vehicle: other
  T/C: 408 % of control and 434 % of control and 185 % of control
dose: 70.0 mg/kg/injection, schedule: Q01DX001 (ip), vehicle: other
  T/C: 433 % of control and 226 % of control
dose: 71.0 mg/kg/injection, schedule: Q01DX001 (ip), vehicle: saline with Tween-80
  T/C: 156 % of control and 167 % of control
dose: 80.0 mg/kg/injection, schedule: Q01DX001 (ip), vehicle: other
  T/C: 580 % of control and 171 % of control
dose: 81.0 mg/kg/injection, schedule: Q01DX001 (ip), vehicle: other
  T/C: 378 % of control [middle of 4 runs]
dose: 81.0 mg/kg/injection, schedule: Q01DX001 (ip), vehicle: saline with Tween-80
  T/C: 520 % of control and 719 % of control
dose: 90.0 mg/kg/injection, schedule: Q01DX001 (ip), vehicle: other
  T/C: 511 % of control
dose: 90.0 mg/kg/injection, schedule: Q01DX001 (oral), vehicle: other
  T/C: 372 % of control and 320 % of control
dose: 91.0 mg/kg/injection, schedule: Q01DX001 (oral), vehicle: other
  T/C: 336 % of control and 513 % of control and 303 % of control
dose: 100.0 mg/kg/injection, schedule: Q01DX001 (ip), vehicle: other
  T/C: 350 % of control
dose: 107.0 mg/kg/injection, schedule: Q01DX001 (ip), vehicle: saline with Tween-80
  T/C: 201 % of control and 229 % of control
dose: 110.0 mg/kg/injection, schedule: Q01DX001 (ip), vehicle: other
  T/C: 188 % of control
dose: 120.0 mg/kg/injection, schedule: Q01DX001 (ip), vehicle: other
  T/C: 245 % of control
dose: 160.0 mg/kg/injection, schedule: Q01DX001 (ip), vehicle: saline with Tween-80
  T/C: 392 % of control and 248 % of control
dose: 240.0 mg/kg/injection, schedule: Q01DX001 (ip), vehicle: saline with Tween-80
  T/C: 556 % of control
dose: 360.0 mg/kg/injection, schedule: Q01DX001 (ip), vehicle: saline with Tween-80
  T/C: 194 % of control and 263 % of control
dose: 540.0 mg/kg/injection, schedule: Q01DX001 (ip), vehicle: saline with Tween-80
  T/C: 173 % of control

## COc1cccc2c1C(=O)c1c(O)c3c(c(O)c1C2=O)C[C@@](O)(C(=O)CO)C[C@@H]3OC1CC(N)C(O)C(C)O1 (stereo partly specified)
dose: 0.6 mg/kg/injection, schedule: Q01DX005 (iv), vehicle: clinical formulation
  T/C: 100 % of control
dose: 0.7 mg/kg/injection, schedule: Q01DX009 (ip), vehicle: clinical formulation
  T/C: 97 % of control
dose: 0.7 mg/kg/injection, schedule: Q01DX009 (sc), vehicle: clinical formulation
  T/C: 100 % of control
[4]
  T/C: 90 % of control
dose: 0.9 mg/kg/injection, schedule: Q01DX005 (iv), vehicle: clinical formulation
  T/C: 102 % of control
dose: 1.1 mg/kg/injection, schedule: Q01DX009 (ip), vehicle: clinical formulation
  T/C: 100 % of control
dose: 1.1 mg/kg/injection, schedule: Q01DX009 (sc), vehicle: clinical formulation
  T/C: 100 % of control
dose: 1.4 mg/kg/injection, schedule: Q01DX005 (iv), vehicle: clinical formulation
  T/C: 101 % of control
[5]
  T/C: 101 % of control
dose: 1.7 mg/kg/injection, schedule: Q01DX009 (ip), vehicle: clinical formulation
  T/C: 102 % of control
dose: 1.7 mg/kg/injection, schedule: Q01DX009 (sc), vehicle: clinical formulation
  T/C: 105 % of control
dose: 2.4 mg/kg/injection, schedule: Q01DX005 (iv), vehicle: clinical formulation
  T/C: 108 % of control
dose: 2.4 mg/kg/injection, schedule: Q01DX009 (ip), vehicle: clinical formulation
  T/C: 105 % of control
dose: 2.4 mg/kg/injection, schedule: Q01DX009 (sc), vehicle: clinical formulation
  T/C: 112 % of control
dose: 2.5 mg/kg/injection, schedule: Q01DX005 (iv), vehicle: saline
  T/C: 196 % of control
dose: 2.8 mg/kg/injection, schedule: Q01DX005 (iv), vehicle: clinical formulation
  T/C: 108 % of control and 117 % of control
[6]
  T/C: 114 % of control
dose: 3.6 mg/kg/injection, schedule: Q01DX009 (ip), vehicle: clinical formulation
  T/C: 110 % of control
dose: 3.6 mg/kg/injection, schedule: Q01DX009 (sc), vehicle: clinical formulation
  T/C: 119 % of control
[7]
  T/C: 86 % of control
dose: 4.2 mg/kg/injection, schedule: Q01DX005 (iv), vehicle: clinical formulation
  T/C: 123 % of control
dose: 6.3 mg/kg/injection, schedule: Q01DX005 (iv), vehicle: clinical formulation
  T/C: 124 % of control
[8]
  T/C: 87 % of control
dose: 9.4 mg/kg/injection, schedule: Q01DX005 (iv), vehicle: clinical formulation
  T/C: 115 % of control
dose: 14.1 mg/kg/injection, schedule: Q01DX005 (iv), vehicle: clinical formulation
  T/C: 113 % of control

## CC(=O)OC1CCC(NC(=O)N(CCF)N=O)CC1 (stereo unspecified)
[1]
  T/C: 175 % of control
[2]
  T/C: 248 % of control
dose: 32.0 mg/kg/injection, schedule: Q01DX001 (oral), vehicle: other
  T/C: 441 % of control
[3]
  T/C: 473 % of control

## COc1cccc2c1C(=O)c1c(O)c3c(c(O)c1C2=O)CC(O)(C(=O)CO)CC3OC1CC(N)C(O)C(C)O1 (stereo unspecified)
[4]
  T/C: 104 % of control
[5]
  T/C: 103 % of control
[6]
  T/C: 117 % of control
[7]
  T/C: 105 % of control
dose: 5.0 mg/kg/injection, schedule: Q01DX005 (iv), vehicle: saline
  T/C: 89 % of control
dose: 6.0 mg/kg/injection, schedule: Q01DX005 (iv), vehicle: saline
  T/C: 97 % of control
[8]
  T/C: 96 % of control
dose: 8.0 mg/kg/injection, schedule: Q01DX005 (iv), vehicle: saline
  T/C: 90 % of control
